Data published in patent US20160045505A1, “COMPOUNDS AND COMPOSITIONS FOR THE TREATMENT OF PARASITIC DISEASES” (NOVARTIS AG, priority 2013, published 2016).
Read-outs that look alike come from different tables or passages of the source.

Key:
[1] = tested on: Trypanosoma cruzi amastigotes (Tulahuen strain expressing Lac-Z) cultured in 3T3 fibroblast cells; assay: microbe, parasite or virus in culture; type: cell-based; details: Trypanosoma cruzi, TULAHUEN, Fibroblast, T. cruzi amastigotes in 3T3 fibroblast cells, inhibition of proliferation; read-out: T cruzi EC50
[2] = tested on: Trypanosoma brucei Lister 427 strain, bloodstream form; assay: Assay for proliferation of kinetoplastid parasite Trypanosoma brucei (Cell Titer Glo, 48 hours); type: cell-based; details: Trypanosoma brucei, read-out: T. brucei EC50
Outline: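 Bloodstream-form T. brucei Lister 427 in HMI-9 medium was exposed to compound (DMSO vehicle) for 48 hours at 37° C, 5% CO2. Parasite growth was read as ATP by CellTiter-Glo luminescence, with EC50 calculated from percent inhibition.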

[3] = tested on: L. donovani HU3 strain in mouse peritoneal macrophages; assay: Assay for proliferation of Leishmania parasites in infected mouse peritoneal macrophages (SybrGreen staining, high-content imaging, 5 days); type: cell-based, Leishmania donovani; details: Leishmania donovani, Peritoneal macrophage, L. donovani in mouse peritoneal macrophages, inhibition of proliferation; read-out: L. donovani Macrophage EC50
[4] = tested on: Leishmania donovani axenic amastigote parasites; assay: Leishmania donovani axenic amastigote proliferation assay (Cell TiterGlo luminescence, 2 day incubation); type: cell-based; details: Leishmania donovani, axenic amastigotes, inhibition of proliferation; read-out: L. donovani amastigotes EC50
[5] = T. brucei Lister 427 bloodstream form, inhibition of proliferation

Row | SMILES | EC50 [1] | EC50 [2, 5] | EC50 [3] | EC50 [4] | EC50 [2]
1 | Cc1ncoc1C(=O)Nc1ccc(Cl)c(-c2cn3cc(NC(=O)OC(C)C)cnc3n2)c1 [Compound 53] | 0.572 µM | 0.386 µM | 6.27 µM | 0.448 µM | 
2 | CC(C)OC(=O)Nc1cnc2nc(-c3cc(NC(=O)c4cnc(C5CC5)o4)ccc3Cl)cn2c1 [Compound 60] | 0.444 µM | 1.54 µM | 1.1 µM | 0.727 µM | 
3 | CC(C)OC(=O)Nc1cnc2nc(-c3cc(NC(=O)c4ccc(Cl)s4)ccc3F)cn2c1 [Compound 66] | 0.444 µM | 1.84 µM | 16.1 µM | 2.81 µM | 
4 | Cc1nc(C)c(C(=O)Nc2ccc(F)c(-c3cn4cc(NC(=O)OC(C)C)cnc4n3)c2)s1 [Compound 68] | 3.6 µM | 14.2 µM | 39.2 µM | 14.2 µM | 
5 | Cc1nc(C(=O)Nc2ccc(F)c(-c3cn4cc(NC(=O)OC(C)C)cnc4n3)c2)c(C(F)(F)F)o1 [Compound 69] | 0.403 µM | 3.12 µM | 3.3 µM | 1.4 µM | 
6 | CC(C)OC(=O)Nc1cnc2nc(-c3cc(NC(=O)c4ccc(Br)o4)ccc3F)cn2c1 [Compound 70] | 0.072 µM | 0.054 µM | 0.19 µM | 0.136 µM | 
7 | CC(C)OC(=O)Nc1cnc2nc(-c3cc(NC(=O)c4ccnn4C)ccc3F)cn2c1 [Compound 74] | 0.608 µM | 0.49 µM | 3.89 µM | 0.608 µM | 
8 | CC(C)OC(=O)Nc1cnc2nc(-c3cc(NC(=O)c4cccs4)ccc3F)cn2c1 [Compound 75] | 0.15 µM | 0.482 µM | > 6.02 µM | 0.581 µM | 
9 | Cc1ncoc1C(=O)Nc1ccc(F)c(-c2cn3cc(NC(=O)OC(C)C)cnc3n2)c1 [Compound 76] | 0.636 µM | 0.348 µM | 4.22 µM | 0.305 µM | 
10 | CC(C)OC(=O)Nc1cnc2nc(-c3cc(NC(=O)c4cnco4)ccc3F)cn2c1 [Compound 78] | 1.91 µM | 0.553 µM | 6.41 µM | 0.307 µM | 
11 | Cc1cc(C(=O)Nc2ccc(F)c(-c3cn4cc(NC(=O)OC(C)C)cnc4n3)c2)[nH]n1 [Compound 79] | > 20 µM | 7.35 µM | > 50 µM | 7.28 µM | 
12 | Cc1ccc(C(=O)Nc2ccc(F)c(-c3cn4cc(NC(=O)OC(C)C)cnc4n3)c2)o1 [Compound 80] | 0.063 µM | 0.059 µM | 0.244 µM | 0.089 µM | 
13 | CC(C)OC(=O)Nc1cnc2nc(-c3cc(NC(=O)c4c[nH]cn4)ccc3F)cn2c1 [Compound 81] | > 20 µM | > 50 µM | > 50 µM | > 25 µM | 
14 | CC(C)OC(=O)Nc1cnc2nc(-c3cc(NC(=O)c4ccc(Br)s4)ccc3F)cn2c1 [Compound 82] | 1.21 µM | 4.2 µM | 3.9 µM | 4.99 µM | 
15 | CC(=O)c1ccc(C(=O)Nc2ccc(F)c(-c3cn4cc(NC(=O)OC(C)C)cnc4n3)c2)s1 [Compound 83] | 7.04 µM | > 50 µM | 6.81 µM | 15.5 µM | 
16 | CC(C)OC(=O)Nc1cnc2nc(-c3cc(NC(=O)[C@H](N)c4ccccc4)ccc3F)cn2c1 [Compound 85] | 10.8 µM | 32.7 µM | 15.2 µM | > 25 µM | 
17 | Cc1cc(C(=O)Nc2ccc(F)c(-c3cn4cc(NC(=O)OC(C)C)cnc4n3)c2)no1 [Compound 86] | > 20 µM | 0.924 µM | > 50 µM | > 25 µM | 
18 | CC(C)OC(=O)Nc1cnc2nc(-c3cc(NC(=O)C(C)N)ccc3F)cn2c1 (stereo not drawn) [Compound 87] | > 20 µM | > 50 µM | > 43.7 µM | > 25 µM | 
19 | Cc1ccc(C(=O)Nc2ccc(F)c(-c3cn4cc(NC(=O)OC(C)C)cnc4n3)c2)s1 [Compound 88] | 1.17 µM |  | 19.7 µM | 5.37 µM | 1.18 µM
20 | CC(C)OC(=O)Nc1cnc2nc(-c3cc(NC(=O)c4cncs4)ccc3F)cn2c1 [Compound 90] | 1.46 µM | 0.61 µM | 7.58 µM | 0.894 µM | 
21 | CC(C)OC(=O)Nc1cnc2nc(-c3cc(NC(=O)c4nccn4C)ccc3F)cn2c1 [Compound 97] | 10.5 µM | 13.2 µM | 18.2 µM | 12 µM | 
22 | CC(C)OC(=O)Nc1cnc2nc(-c3cc(NC(=O)c4ccn(C)n4)ccc3F)cn2c1 [Compound 98] | 0.549 µM | 0.503 µM | 3.34 µM | 0.645 µM | 
23 | CC(C)OC(=O)Nc1cnc2nc(-c3cc(NC(=O)C4CC(=O)C4)ccc3F)cn2c1 [Compound 101] | 9.95 µM | 3.49 µM | 2.52 µM | 0.636 µM | 

Row | SMILES | EC50 [1] | EC50 [2, 5] | EC50 [3] | EC50 [4] | EC50 [2]
24 | CC(C)OC(=O)Nc1cnc2nc(-c3cc(NC(=O)C4CCC4)ccc3F)cn2c1 [Compound 102] | 0.464 µM | 0.492 µM | 1.71 µM | 0.54 µM | 
25 | CC(C)OC(=O)Nc1cnc2nc(-c3cc(NC(=O)/C=C/CN(C)C)ccc3F)cn2c1 [Compound 103] | 10.8 µM | 5.62 µM | 9.86 µM | 2.15 µM | 
26 | CCC(C)C(=O)Nc1ccc(F)c(-c2cn3cc(NC(=O)OC(C)C)cnc3n2)c1 (stereo not drawn) [Compound 104] | 1.34 µM | 1.21 µM | > 50 µM | 2.39 µM | 
27 | CC(C)OC(=O)Nc1cnc2nc(-c3cc(NC(=O)C(C)C)ccc3F)cn2c1 [Compound 105] | 1.46 µM | 1.48 µM | > 50 µM | 2.17 µM | 
28 | COCC(=O)Nc1ccc(F)c(-c2cn3cc(NC(=O)OC(C)C)cnc3n2)c1 [Compound 106] | 3.45 µM | 2.2 µM | 24.8 µM | 2.74 µM | 
29 | CC(C)OC(=O)Nc1cnc2nc(-c3cc(NC(=O)c4ccc(S(C)(=O)=O)s4)ccc3F)cn2c1 [Compound 109] | > 20 µM | > 50 µM | 28.2 µM | > 25 µM | 
30 | CC(C)OC(=O)Nc1cnc2nc(-c3cc(NC(=O)CN4CCCC4)ccc3F)cn2c1 [Compound 110] | 9.59 µM | 27.7 µM | 8.1 µM | > 25 µM | 
31 | Cc1cc(C(=O)Nc2ccc(F)c(-c3cn4cc(NC(=O)OC(C)C)cnc4n3)c2)on1 [Compound 112] | 1.27 µM | 1.09 µM | 16.6 µM | 2.1 µM | 
32 | Cc1nc(C)c(C(=O)Nc2ccc(F)c(-c3cn4cc(NC(=O)C5COCCO5)cnc4n3)c2)o1 (stereo not drawn) [Compound 113] | 2.99 µM | 0.452 µM | 0.502 µM | 0.257 µM | 
33 | Cc1nc(C)c(C(=O)Nc2ccc(F)c(-c3cn4cc(NC(=O)C5(C)CCC5)cnc4n3)c2)o1 [Compound 114] | 1.07 µM | 0.105 µM | 0.266 µM | 0.143 µM | 
34 | Cc1nc(C)c(C(=O)Nc2ccc(F)c(-c3cn4cc(NC(=O)C5(C)CC5)cnc4n3)c2)o1 [Compound 115] | 0.41 µM | 0.054 µM | 0.093 µM | 0.073 µM | 
35 | CC1=C(C(=O)Nc2cnc3nc(-c4cc(NC(=O)c5oc(C)nc5C)ccc4F)cn3c2)OCCO1 [Compound 116] | 3.42 µM | 0.153 µM | 0.484 µM | 0.096 µM | 
36 | CCn1ccnc1C(=O)Nc1cnc2nc(-c3cc(NC(=O)c4oc(C)nc4C)ccc3F)cn2c1 [Compound 117] | > 20 µM | 0.166 µM | > 50 µM | 0.125 µM | 
37 | Cc1nc(C)c(C(=O)Nc2ccc(F)c(-c3cn4cc(NC(=O)C5(C)CC(F)(F)C5)cnc4n3)c2)o1 [Compound 118] | 3.38 µM | 0.442 µM | 2.05 µM | 0.606 µM | 
38 | Cc1nc(C)c(C(=O)Nc2ccc(F)c(-c3cn4cc(NC(=O)c5ccccn5)cnc4n3)c2)o1 [Compound 119] | 0.078 µM | 0.086 µM | 0.289 µM | 0.056 µM | 
39 | Cc1nc(C)c(C(=O)Nc2ccc(F)c(-c3cn4cc(NC(=O)C5CCOC(C(C)C)C5)cnc4n3)c2)o1 (stereo not drawn) [Compound 120] | 0.767 µM | 0.419 µM | 0.975 µM | 0.3 µM | 
40 | O=C(Nc1cnc2nc(-c3cc(NC(=O)N4CCCC4)ccc3F)cn2c1)C1CCCN1 (stereo not drawn) [Compound 121] | > 20 µM | 3.95 µM | > 50 µM | 23.1 µM | 
41 | Cc1nc(C)c(C(=O)Nc2cnc3nc(-c4cc(NC(=O)N5CCCC5)ccc4F)cn3c2)o1 [Compound 123] | > 20 µM | 0.414 µM | > 50 µM | 0.423 µM | 
42 | O=C(Nc1cnc2nc(-c3cc(NC(=O)N4CCCC4)ccc3F)cn2c1)c1ccc(F)cn1 [Compound 124] | 0.046 µM | 0.023 µM | 5.64 µM | 0.049 µM | 
43 | O=C1CCC(C(=O)Nc2cnc3nc(-c4cc(NC(=O)N5CCCC5)ccc4F)cn3c2)N1 (stereo not drawn) [Compound 125] | > 20 µM | 7.94 µM | > 50 µM | > 21.9 µM | 
44 | O=C(Nc1cnc2nc(-c3cc(NC(=O)N4CCCC4)ccc3F)cn2c1)[C@H]1CCCO1 [Compound 126] | 4.86 µM | 0.126 µM | 4.05 µM | 0.434 µM | 
45 | CC1(C(=O)Nc2cnc3nc(-c4cc(NC(=O)N5CCCC5)ccc4F)cn3c2)CCCO1 (stereo not drawn) [Compound 127] | 1.98 µM | 0.074 µM | 2.12 µM | 0.561 µM | 
